Experimental data published in patent US11739074B2, “Ras inhibitors” (Revolution Medicines, Inc., priority 2019, dated 2023).
Where two headings read alike, the source gives them in different places.

Experiments:
AsPC-1 (K-Ras G12D) [1] = experiment: Potency assay: pERK in AsPC-1 cells; assay type: cell-based; conditions: Homo sapiens
AsPC-1 (K-Ras G12D) [2] = experiment: CellTiter-Glo cell viability assay, AsPC-1; assay type: cell-based; conditions: Homo sapiens, ASPC1, 120 h
Procedure: Determination of Cell Viability in RAS Mutant Cancer Cell Lines
Protocol: CellTiter-Glo® Cell Viability Assay
Note—The following protocol describes a procedure for monitoring cell viability of K-Ras mutant cancer cell lines in response to a compound of the invention. Other RAS isoforms may be employed, though the number of cells to be seeded will vary based on cell line used.
Test compounds (132.5 nL) were directly dispensed into the assay plates containing cells. […] On day 5, assay plates and their contents were equilibrated to room temperature for approximately 30 minutes. […] Luminescence was measured using the PerkinElmer Enspire. Data were normalized by the following: (Sample signal/Avg. DMSO)*100. The data were fit using a four-parameter logistic fit.

[3] = ASPC1, AsPC-1 cells, K-Ras G12D, read-out: pERK EC50 (AsPC-1 KRAS G12D)
[4] = AsPC-1, K-Ras G12D, 5-day treatment, read-out: AsPC-1 Cell Viability IC50
[5] = ASPC1, read-out: pERK EC50 (AsPC-1 KRAS G12D)
[6] = read-out: AsPC-1 Cell Viability IC50, AsPC-1, K-Ras G12D, 5-day treatment

Row | SMILES | EC50 (AsPC-1 (K-Ras G12D) [1]; [3]) [µM] | IC50 (AsPC-1 (K-Ras G12D) [2]; [4]) [µM] | EC50 (AsPC-1 (K-Ras G12D) [1]; [5]) [µM] | IC50 (AsPC-1 (K-Ras G12D) [2]; [6]) [µM]
1 | CCn1c(-c2cccnc2[C@H](C)OC)c2c3cc(ccc31)-c1cc(O)cc(c1)C[C@H](NC(=O)[C@H](C(C)C)N(C)C(=O)C1CCN(S(=O)(=O)[C@@H]3CN3C)CC1)C(=O)N1CCC[C@H](N1)C(=O)OCC(C)(C)C2 (single isomer, unassigned) [Compound 119] | < 5 | 1 to 10 |  | 
2 | CCn1c(-c2cccnc2[C@H](C)OC)c2c3cc(ccc31)-c1cc(O)cc(c1)C[C@H](NC(=O)[C@H](C(C)C)N(C)C(=O)c1ccc(NC(=O)[C@@H]3CN3)cn1)C(=O)N1CCC[C@H](N1)C(=O)OCC(C)(C)C2 [Compound 187] | < 5 | 1 to 10 |  | 
3 | CCn1c(-c2cccnc2[C@H](C)OC)c2c3cc(ccc31)-c1cc(O)cc(c1)C[C@H](NC(=O)[C@H](C(C)C)N(C)C(=O)c1ncc(NC(=O)[C@H]3CN3)n1C)C(=O)N1CCC[C@H](N1)C(=O)OCC(C)(C)C2 [Compound 84] | < 5 | 1 to 10 |  | 
4 | CCn1c(-c2cnccc2COC)c2c3cc(ccc31)-c1cc(O)cc(c1)C[C@H](NC(=O)[C@H](C(C)C)N(C)C(=O)CN(C)C(=O)[C@@H]1N[C@@H]1C)C(=O)N1CCC[C@H](N1)C(=O)OCC(C)(C)C2 [Compound 105] |  |  | < 5 | 1 to 10
5 | CCn1c(-c2cccnc2[C@H](C)OC)c2c3cc(ccc31)-c1cc(O)cc(c1)C[C@H](NC(=O)[C@H](C1CCCC1)N(C)C(=O)CN(C)C(=O)[C@@H]1N[C@@H]1C1(C#N)CC1)C(=O)N1CCC[C@H](N1)C(=O)OCC(C)(C)C2 (single isomer, unassigned) [Compound 308] | < 5 | 1 to 10 |  | 
6 | CCn1c(-c2cccnc2[C@H](C)OC)c2c3cc(ccc31)-c1cc(O)cc(c1)C[C@H](NC(=O)[C@H](C(C)C)N(C)C(=O)N1CC[C@H](N(C)C(=O)[C@H]3CN3)C1)C(=O)N1CCC[C@H](N1)C(=O)OCC(C)(C)C2 [Compound 254] | < 5 | > 10 |  | 
7 | CCn1c(-c2cccnc2[C@H](C)OC)c2c3cc(ccc31)-c1cc(O)cc(c1)C[C@H](NC(=O)[C@H](C(C)C)N(C)C(=O)CNC(=O)[C@H]1CN1)C(=O)N1CCC[C@H](N1)C(=O)OCC(C)(C)C2 [Compound 140] |  |  | < 5 | 1 to 10
8 | CCn1c(-c2cccnc2[C@H](C)OC)c2c3cc(ccc31)-c1cc(O)cc(c1)C[C@H](NC(=O)[C@H](C(C)C)N(C)C(=O)[C@]1(F)CCN(C(=O)[C@@H]3CN3)C1)C(=O)N1CCC[C@H](N1)C(=O)OCC(C)(C)C2 [Compound 184] | < 5 | 1 to 10 |  | 
9 | CCn1c(-c2cccnc2[C@H](C)OC)c2c3cc(ccc31)-c1cc(O)cc(c1)C[C@H](NC(=O)[C@H](C(C)C)N(C)C(=O)N1CCCN(C(=O)[C@@H]3CN3)CC1)C(=O)N1CCC[C@H](N1)C(=O)OCC(C)(C)C2 [Compound 173] | < 5 | 1 to 10 |  | 
10 | CCn1c(-c2cccnc2[C@H](C)OC)c2c3cc(ccc31)-c1cc(O)cc(c1)C[C@H](NC(=O)[C@H](C(C)C)N(C)C(=O)c1ccc([C@@H]3CN3)nc1)C(=O)N1CCC[C@H](N1)C(=O)OCC(C)(C)C2 [Example 87, 6-((S)-aziridin-2-yl)-N-((2S)-1-(((6^3S,4S)-1^1-ethyl-2^5-hydroxy-1^2-(2-((S)-1-methoxyethyl)pyridin-3-yl)-10,10-dimethyl-5,7-dioxo-6^1,6^2,6^3,6^4,6^5,6^6-hexahydro-1^1H-8-oxa-1(5,3)-indola-6(1,3)-pyridazina-2(1,3)-benzenacycloundecaphane-4-yl)amino)-3-methyl-1-oxobutan-2-yl)-N-methylnicotinamide] | < 5 | 1 to 10 |  | 
11 | CCn1c(-c2cccnc2[C@H](C)OC)c2c3cc(ccc31)-c1cc(O)cc(c1)C[C@H](NC(=O)[C@H](C(C)C)N(C)C(=O)CN(C)C(=O)[C@H]1CN1CCCN1CCOC1=O)C(=O)N1CCC[C@H](N1)C(=O)OCC(C)(C)C2 (stereo partly drawn) [Compound 272] |  |  | < 5 | 1 to 10
12 | CCn1c(-c2cccnc2[C@H](C)OC)c2c3cc(ccc31)-c1cc(O)cc(c1)C[C@H](NC(=O)[C@H](C1CCCC1)N(C)C(=O)[C@@H](C)N(C)C(=O)[C@@H]1N[C@@H]1C1CC1)C(=O)N1CCC[C@H](N1)C(=O)OCC(C)(C)C2 [Compound 327] | < 5 | 1 to 10 |  | 
